Key:
[1] = biological target: T1, ZIKV NS2B-NS3pro (Zika virus, UniProt A0A024B7W1); assay: Fluorescent proteinase activity assay (Pyr-RTKR-AMC cleavage); assay type: biochemical
T1 construct: hydrophilic cytoplasmic portion of NS2B (residues 48-94) was linked to the NS3 protease domain; was linked to the NS3 protease domain via a 9-residue linker L; His tag (N, cleaved yes); made in house; host or cells: E. coli BL21 (DE3) Codon Plus
Experimental: Fluorescent proteinase activity assay and IC50 determination. The peptide cleavage activity assays with purified ZIKV NS2B-NS3pro polypeptides were performed in 0.2 ml TBS containing 20% glycerol and 0.005% Brij 35 containing 20 μM of the cleavage peptide pyroglutamic acid Pyr-Arg-Thr-Lys-Arg-7-amino-4-methylcoumarin (Pyr-RTKR-AMC) and 10 nM enzyme. The reaction velocity was monitored continuously at λex=360 nm and λem=465 nm on a Tecan fluorescence spectrophotometer (Männedorf, Switzerland). To determine the IC50 values of the inhibitory compounds, ZIKV NS2B-NS3pro constructs (20 nM) were preincubated for 30 min at 20° C. with various concentrations of compounds in 0.1 ml TBS containing 20% glycerol and 0.005% Brij 35. Pyr-RTKR-AMC substrate (20 μM) was then added in 0.1 ml of the same buffer. IC50 values were calculated by determining the compound concentration required to obtain 50% of the maximal inhibition of NS2B-NS3pro activity against Pyr-RTKR-AMC. GraphPad Prism was used as fitting software. All assays were performed in triplicate in 96-well plates.
Fluorogenic substrate cleavage assays were performed to test whether binding of RNA interferes with the proteolytic activity of NS2B-NS3pro.

[2] = biological target: T1, ZIKV NS2B-NS3pro; assay: Inhibition of ssRNA binding to NS2B-NS3pro by inhibitors (RNA FP assay)
Description: The DNA constructs were cloned into pGEX6P1 plasmid using BamH1 and EcoR1 cleavage sites, resulting in fusion of a GST tag at the N-terminus of the NS2B cofactor. E. coli were transformed with the individual recombinant constructs, and protein production was induced and the cells were disrupted as described above. The supernatant fraction containing the GST-tagged constructs were loaded onto Protino Glutathione Agarose 4B beads and impurities were removed by washing with TBS. To cleave the GST tag from the viral protease, the beads were co-incubated with 3C protease. The NS2B-NS3pro constructs were then additionally purified by gel filtration on an S200 26/60 column equilibrated with TBS. Purity of the purified construct was analyzed using SDS-PAGE followed by Coomassie staining. Purified protease was concentrated to approximately 10 mg/ml using 10 kDa-cutoff concentrators, flash frozen in small aliquots, and stored at −80° C. […]
Fluorescence polarization assay of RNA/ssDNA binding to ZIKV NS2B-NS3 protease. Binding between purified recombinant ZIKV NS2B-NS3pro constructs and either RNA or ssDNA was assessed using a fluorescence polarization (FP) assay conducted in 0.1 ml of TBS containing 1 mM MgCl2 at 25° C. for 1 h. […] Polarization was monitored on a Bruker Daltonics fluorescence spectrophotometer. […]

[3] = biological target: T2, WNV NS2B-NS3pro (West Nile virus, UniProt P06935); assay: Inhibition of NS2B-NS3pro proteolysis, WNV; assay type: biochemical; conditions: in vitro
T2 construct: comprises an NS2B polypeptide that associates with a proteolytic N-terminal fragment of NS3 polypeptide (NS3pro); a proteolytic N-terminal fragment of NS3 polypeptide (NS3pro) to form NS2B-NS3pro
T2 sequence (P06935 1371-1501): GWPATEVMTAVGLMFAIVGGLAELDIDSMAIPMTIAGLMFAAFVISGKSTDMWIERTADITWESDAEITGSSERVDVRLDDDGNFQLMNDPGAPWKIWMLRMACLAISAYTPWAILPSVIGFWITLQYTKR
T2 sequence (P06935 1502-1679): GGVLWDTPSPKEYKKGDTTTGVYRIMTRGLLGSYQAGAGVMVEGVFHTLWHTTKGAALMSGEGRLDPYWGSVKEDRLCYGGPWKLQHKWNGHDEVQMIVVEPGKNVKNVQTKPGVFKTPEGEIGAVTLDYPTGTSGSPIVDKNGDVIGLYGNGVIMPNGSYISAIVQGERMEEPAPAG
Description: (§1) The open conformation of NS2B-NS3pro is formed by rearrangement/dissociation of the NS2B cofactor from the C-terminal half of NS3pro, leading to a loss of proteolytic activity. NS2B dissociation uncovers a hydrophobic cleft in NS3pro, which presents a druggable pocket that is relatively conserved between the flaviviruses. Allosteric inhibitors of ZIKV, WNV, and DENV2 NS2B-NS3pro were designed in silico to bind a region of NS2B-NS3pro distant from the proteolytic active site. […] RNA binding to ZIKV NS2B-NS3pro was tested with a sub-library of these inhibitors, and some compounds were potent inhibitors of RNA binding to ZIKV NS2B-NS3pro, as depicted in FIG. 7. In Top of FIG. 7, small molecule allosteric inhibitors (10 μM) targeting open/super-open conformations of ZIKV NS2B-NS3pro block ssRNA binding. Fluorescent polarization (%) using FAM labeled ssRNA (20 poly-rU). * p<0.05, […], *** p<0.0005, […] by two-tailed unpaired t-test with Welch's correction. In Bottom of FIG. 7, IC50 for inhibition of ZIKV, WNV, and DENV2 NS2B-NS3pro proteolysis by the indicated inhibitors. […] NSC86314 was previously shown to inhibit WNV and DENV2 replicons in cell-based assays with IC50 values of<50 μM. […]

[4] = biological target: T3, DENV2 NS2B-NS3pro (Dengue virus type 2, UniProt P29990); assay: Inhibition of NS2B-NS3pro proteolysis, DENV2; assay type: biochemical; conditions: in vitro
T3 construct: comprises an NS2B polypeptide that associates with a proteolytic N-terminal fragment of NS3 polypeptide (NS3pro); a proteolytic N-terminal fragment of NS3 polypeptide (NS3pro) to form NS2B-NS3pro
T3 sequence (P29990 1346-1475): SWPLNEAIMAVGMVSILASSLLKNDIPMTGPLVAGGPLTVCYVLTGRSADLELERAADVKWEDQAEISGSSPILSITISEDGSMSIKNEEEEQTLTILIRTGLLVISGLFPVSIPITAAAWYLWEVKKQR
T3 sequence (P29990 1476-1653): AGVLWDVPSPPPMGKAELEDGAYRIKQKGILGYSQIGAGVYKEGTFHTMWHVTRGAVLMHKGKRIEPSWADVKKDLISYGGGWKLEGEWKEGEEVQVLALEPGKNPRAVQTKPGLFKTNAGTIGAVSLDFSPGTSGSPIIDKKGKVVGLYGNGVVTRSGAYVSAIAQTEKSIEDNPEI
Description: as §1

[5] = tested on: WNV replicons; conditions: cell-based assays, previously shown; cited from earlier work
[6] = tested on: DENV2 replicons; conditions: cell-based assays, previously shown; cited from earlier work

T1 sequence (A0A024B7W1 1503-1680): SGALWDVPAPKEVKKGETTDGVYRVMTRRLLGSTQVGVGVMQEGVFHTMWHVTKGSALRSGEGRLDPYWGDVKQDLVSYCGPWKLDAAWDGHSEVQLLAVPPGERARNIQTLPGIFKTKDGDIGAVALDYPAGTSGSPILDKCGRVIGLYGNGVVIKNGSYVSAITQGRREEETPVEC
T1 sequence (A0A024B7W1 1420-1466): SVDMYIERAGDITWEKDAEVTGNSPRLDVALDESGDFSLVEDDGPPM

O=C(O)c1cc(/N=N/c2ccc(S(=O)(=O)Nc3nccs3)cc2)ccc1O [NSC114428]
Inhibition of proteolytic activity of ZIKV protease ([1]; FIG. 7): low μM range | Inhibition of RNA binding ([2]; FIG. 7): low μM range

Nc1cc(N)c(N=Nc2ccc(S(=O)(=O)Nc3nccs3)cc2)cc1N=Nc1ccc(S(=O)(=O)Nc2nccs2)cc1 [NSC86314]
IC50, NS2B-NS3pro from ZIKV ([1]; in vitro): low to sub-micromolar | IC50, NS2B-NS3pro from WNV [3]: low to sub-micromolar | IC50, NS2B-NS3pro from DENV [4]: low to sub-micromolar | IC50 [5]: < 50 µM | IC50 [6]: < 50 µM

aprotinin
RNA binding to purified NS2B-NS3pro-inhibitor complex ([2]; closed conformation induced by substrate-mimicking inhibitor): no RNA binding

From patent publication US20240166726A1, “UNIVERSAL TARGETING STRATEGY TO INHIBIT REPLICATION OF ZIKV AND FLAVIVIRUSES” (Sanford Burnham Prebys Medical Discovery Institute, priority 2022, published 2024)
